Test [1] concerns HER2 high-expressing cancer cells NCI-N87. The test can be described thus: Cytotoxicity assay (CellTiter-Glo cell viability), NCI-N87. Conditions: NCI-N87, 120 h treatment. Type of test: cell-based. The procedure:
(§1) Cytotoxicity assays were performed using HER2 high-expressing cancer cells SK-BR-3 (FIG. 1) and NCI-N87 (FIG. 2), HER2 low-expressing cancer cells CFPAC-1 (FIG. 3) and NCI-H2110 (FIG. 4), as well as a HER2 negative cell line MDA-MB-468 (FIG. 5) to analyze the effect of conjugates on tumor cell proliferation. […] In brief, 3000 to 5000 cells were plated in 96-well plates, and cells were able to attach overnight. Cells were treated with indicated drugs with various concentrations for 120 h. Cell viabilities were examined by CellTiter-Glo® Luminescent Cell Viability Assay, and percentage of cell viability was calculated.

The subject of test [2] is HER2 high-expressing cancer cells SK-BR-3. In words: Cytotoxicity assay (CellTiter-Glo cell viability), SK-BR-3. Type of test: cell-based. The following applies: SK-BR-3, 120 h treatment. As to the method: as §1

The results in this text go back to US11826432B2, “Linkers, conjugates and applications thereof” (priority 2021, dated 2023).

Structures are written as SMILES.

As for `CC[C@@]1(O)C(=O)OCc2c1cc1n(c2=O)Cc2c-1nc1cc(F)c(C)c3c1c2[C@@H](NC(=O)CO)CC3` [compound 10], the IC50 in test [1] was found to be 4.68 nM; in test [2], 1.47 nM.
